One assay concerns the target T1, DNA-dependent ATPase A (Bos taurus, UniProt Q9TTA5).
T1 sequence (Q9TTA5 222-940): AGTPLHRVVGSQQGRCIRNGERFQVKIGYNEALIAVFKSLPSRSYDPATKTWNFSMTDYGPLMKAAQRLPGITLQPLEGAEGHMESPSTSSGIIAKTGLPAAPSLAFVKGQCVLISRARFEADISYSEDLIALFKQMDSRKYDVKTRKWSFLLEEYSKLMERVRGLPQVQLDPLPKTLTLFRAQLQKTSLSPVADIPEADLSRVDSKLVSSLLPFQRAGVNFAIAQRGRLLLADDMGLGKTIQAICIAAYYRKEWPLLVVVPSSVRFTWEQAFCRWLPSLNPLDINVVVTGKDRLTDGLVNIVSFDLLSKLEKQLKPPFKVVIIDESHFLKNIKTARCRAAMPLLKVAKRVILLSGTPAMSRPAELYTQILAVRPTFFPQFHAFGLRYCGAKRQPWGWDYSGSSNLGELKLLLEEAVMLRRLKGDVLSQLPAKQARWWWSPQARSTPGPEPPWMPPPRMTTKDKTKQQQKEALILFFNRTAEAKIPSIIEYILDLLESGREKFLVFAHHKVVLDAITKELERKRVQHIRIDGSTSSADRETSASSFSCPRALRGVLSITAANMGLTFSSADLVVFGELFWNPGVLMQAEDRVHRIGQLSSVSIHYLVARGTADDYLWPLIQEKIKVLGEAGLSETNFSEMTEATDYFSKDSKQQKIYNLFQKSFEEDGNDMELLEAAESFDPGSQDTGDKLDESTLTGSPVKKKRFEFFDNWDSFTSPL
The assay is described as follows: Inhibition of ATP hydrolysis by DNA-dependent ATPase A (overexpressed 82 kDa ADAAD). Conditions: Ki, Table 4; determined in the presence of effector. In kind it is biochemical, bovine. As for the experimental part: Enzyme (0.2 units (one unit is the amount of enzyme required to hydrolyze 1 μmole of adenosine triphosphate per min)) was mixed with 50 mM Tris-SO4, pH 7.5, 1 mM MgCl2, 5 mM β-mercaptoethanol, 0.5 mg/mL bovine serum albumin, 2 mM phosphoenol pyruvate, 0.03 mg/mL pyruvate kinase, 10 nM of stem-loop DNA, and 2 mM adenosine triphosphate in a total volume of 100 μL. The reaction was typically incubated at 37° C. for 10-60 minutes. At the end of the designated time, 225 μL of 10% sodium dodecyl sulfate and 350 μL of water were added to stop the reaction. Color development requires the addition of two reagents: 180 μL of reagent A (prepared by mixing equal volumes of 60 to 70% perchloric acid and 5% ammonium molybdate in water) and 45 μL of reagent B (0.2 g 1:2:4 aminonaphthol sulfonic acid, 12.0 g sodium metabisulfite, and 2.4 g sodium sulfite dissolved in 100 mL of water) was added. The reaction was incubated at room temperature for 10 minutes and the absorbance was read at 720 nm. The color development was time-dependent and therefore samples must be read at exactly 10 minutes.
Enzyme (0.2 units (one unit is the amount of enzyme required to hydrolyze 1 μmole of adenosine triphosphate per min)) was mixed with 25 mM Tris-acetate pH 7.5, 6 mM Mg(acetate)2, 60 mM KCl, 5 mM β-mercaptoethanol, 3 mM phosphoenol pyruvate, 10 units/mL pyruvate kinase, 10 units/mL lactate dehydrogenase 10 nM DNA, 2 mM adenosine triphosphate, and 0.1 mg/mL NADH in a final volume of 1 mL. The progress of the reaction at 37° C. was monitored at 340 nm using an HP8452 spectrophotometer.
Enzyme (0.2 U) was mixed with 50 mM Tris-SO4, pH 7.5, 1 mM MgCl2, 5 mM β-mercaptoethanol, 0.5 mg/mL bovine serum albumin, 2 mM phosphoenol pyruvate, 0.03 mg/mL pyruvate kinase, 10 nM of stem-loop DNA, and 2 mM adenosine triphosphate in a total volume of 50 μL. Three (3) μCi of [^32P]-γ-adenosine triphosphate was added to the reaction and typical incubation was for 60 minutes 37° C. EDTA (25 mM) was added to stop the reaction. 10 μL of the reaction was spotted on a poly(ethylenimine)-cellulose plate. The plate was developed using 0.9M LiCl and 7M urea as solvent system. The plate was allowed to dry and autoradiographed either using X-OMAT film or a phosphorimager. […]

The test system of the next assay is MDA-MB-231. The assay is described as follows: MTS cell survival assay, MDA-MB-231 breast cancer cells. To be noted: MDA-MB-231, FIG. 9. In kind it is cell-based. The method, then: (§1) The effect of phosphoaminoglycosides on tumor cell growth was tested in cell culture inhibition studies. 5000 cells were plated in a total volume of 50 μl in a 96 well titer plate. After 24 hours, 50 μl of media and drugs, to the required final concentration, were added. The plates were incubated at 37° C. for 5 days. On the 5th day, the fraction of surviving cells was estimated using a non-radioactive cell proliferation assay (CellTiter 96 AQueous Cell Proliferation Assay from Promega).
(§2) This is a colorimetric assay that determines the number of viable cells. The assay measures the bioreduction of a tetrazolium compound (3-(4,5-dimethylthiazol-2-yl)-5-(3-carboxymethoxyphenyl)-2-(4-sulfophenyl)-2H-tetrazolium, inner salt; MTS), via an electron coupling reagent (phenazine methosulfate; PMS), to formazan, which is soluble in the tissue culture medium. The absorbance of formazan at 490 nm can be measured from the 96 well assay plate without additional processing. The conversion of MTS into the aqueous soluble formazan is accomplished by dehydrogenase enzymes found in metabolically active cells. The quantity of formazan product as measured by the amount of 490 nm absorbance is directly proportional to the number of living cells in culture. […] 20 μl of PMS/MTS solution was added to the cells and the plates were incubated at 37° C. for 2 hours before measuring the absorbance at 490 nm. […]

The next assay deals with MCF-7. The assay is described as follows: MTS cell survival assay, MCF-7 breast cancer cells. It counts as cell-based. Conditions: MCF-7, FIG. 9. As for the experimental part: as §1, §2
In general terms: Tetrazolium dyes change colour on reduction, which living cells bring about.

For the next assay, the system named is DNA-dependent ATPases. In words: Effect of millimolar neomycin on DNA-dependent ATPases. It counts as biochemical. To be noted: millimolar concentrations. The method, then: (§3) A number of different ATPases, both DNA-dependent and DNA-independent, were analyzed for their behavior with respect to these drugs.
This inhibition is directly attributable to the positive charge that the aminoglycosides carry and thus the sequestering of the DNA (negatively charged) away from the enzyme (the binding of kanamycin directly to DNA has been confirmed—data not shown). In addition, the phosphoneomycin has differing effects on DNA-dependent ATPases from various sources and of various function.

In the next assay the test system is PC3 cell line. In words: MTS cell survival assay, PC3 prostate cancer cells. It counts as cell-based, human. As for the experimental part: as §1
This is a colorimetric assay that determines the number of viable cells. The assay measures the bioreduction of a tetrazolium compound (3-(4,5-dimethylthiazol-2-yl)-5-(3-carboxymethoxyphenyl)-2-(4-sulfophenyl)-2H-tetrazolium, inner salt; MTS), via an electron coupling reagent (phenazine methosulfate; PMS), to formazan, which is soluble in the tissue culture medium. The absorbance of formazan at 490 nm can be measured from the 96 well assay plate without additional processing. The conversion of MTS into the aqueous soluble formazan is accomplished by dehydrogenase enzymes found in metabolically active cells. The quantity of formazan product as measured by the amount of 490 nm absorbance is directly proportional to the number of living cells in culture. 100 μl of the PMS reagent (Promega) was mixed with 2.0 ml of MTS solution (Promega). 20 μl of PMS/MTS solution was added to the cells and the plates were incubated at 37° C. for 2 hours before measuring the absorbance at 490 nm.
In an initial experiment, four drugs (A-kanamycin, B-phosphokanamycin, C-neomycin, and D-phosphoneomycin) were added to prostate cancer cell cultures in a blind fashion. Two prostate cancer cell lines were incubated with each of the drugs and assayed for cell survivability using the MTS assay (Promega).
5000 cells were grown overnight in media and each respective drug (A-kanamycin, B-phosphokanamycin, C-neomycin, and D-phosphoneomycin) was added on the second day. […] Each point is the average of readings from three wells.

The test system of the next assay is DNA-independent ATPases. In words: Effect on DNA-independent ATPases. In kind it is biochemical. The method, then:
as §3

As for `NCC[C@H](O)C(=O)N[C@@H]1C[C@H](N)[C@@H](O[C@H]2O[C@H](CN)[C@@H](O)[C@H](OP(=O)(O)O)[C@H]2O)[C@H](O)[C@H]1O[C@H]1O[C@H](CO)[C@@H](O)[C@H](N)[C@H]1O` [3′ phosphorylated amikacin], the Ki (as a rule, a measure of affinity in units of concentration, obtained from inhibition or displacement) on DNA-dependent ATPase A was 167 nM.

Consider `CN[C@@H]1[C@@H](O)[C@@H](O[C@@H]2[C@@H](O)[C@H](O[C@H]3O[C@H](CO)[C@@H](O)[C@H](OP(=O)(O)O)[C@H]3N)[C@@H](N)C[C@H]2N)OC[C@H]1O` [3′ phosphorylated gentamicin], for which, at DNA-dependent ATPase A, the Ki was found to be 219 nM.

On to `CN[C@@H]1[C@@H](O)[C@@H](O[C@@H]2[C@@H](O)[C@H](O[C@H]3O[C@H]([C@@H](C)O)[C@@H](O)[C@H](OP(=O)(O)O)[C@H]3N)[C@@H](N)C[C@H]2N)OC[C@]1(C)O` [phosphogeneticin, 3′-phosphogeneticin], for which the Ki at DNA-dependent ATPase A is 191 nM.

Take “Neomycin B & C (^˜15% Neomycin C) [reference compound]”: the “effect on cell growth (in words)” value with MDA-MB-231 and in the assay with MCF-7 was “no effect” in each case. Moreover, in the assay on DNA-dependent ATPases, the “inhibition of all DNA-dependent ATPases (in words)” value was “some inhibition”. In addition, the “effect on PC3 cells (in words)” value in the assay on PC3 cell line (FIG. 8, day five) was “neither kanamycin nor neomycin had any effect”. Besides, the “effect on PC3 cell survival (in words)” value in the assay with PC3 cell line (concentrations in excess of 1 mM) was “increased cell survival”. In addition, in the assay on DNA-independent ATPases, the “effect on DNA-independent ATPases (in words)” value is given as “neither affected”.
